Earlier results on 4 molecules are cited in paper PMC9395488, “First-in-human study of IM156, a novel potent biguanide oxidative phosphorylation (OXPHOS) inhibitor, in patients with advanced solid tumors” (Investigational New Drugs, 2022).

The IC50 is the concentration that gives 50% inhibition.

For data set [1], the system named is patients (pts) with advanced solid tumors. The following applies: cited from earlier work.
The test system of another data set is A549. Also on record: method as in ImmunoMet, 2018. The note with it: in A549; ref ImmunoMet, 2018; read-out: OXPHOS inhibition IC50; cited from earlier work.
The next data set deals with OXPHOS. Set-up: method as in ImmunoMet, 2018. The following applies: at the same concentration; ref ImmunoMet, 2018; cited from earlier work.
The test system of another data set is Glioblastoma cells. Set-up: method as in ImmunoMet, 2018. The following applies: 15 µM IM156, 500 µM temozolomide, ref ImmunoMet, 2018; cited from earlier work.
A further data set has as its system glioblastoma (GSC11). Also on record: method as in ImmunoMet, 2018. The following applies: glioblastoma animal model, control group 47 days; ref ImmunoMet, 2018; cited from earlier work.

With `Cc1nc(-c2nc(-c3ccc(OC(F)(F)F)cc3)no2)nn1Cc1cccc(N2CCC(S(C)(=O)=O)CC2)c1` [IACS-010759], in data set [1], the “patients with PR, percent” value is 5%; the “patients with SD” value was 8 patients; the “patients with SD, percent” value was 38%. Besides, in data set [1] (human, in vivo), the “Grade ≥ 3 AEs, percent of patients” value is 43%; the “diarrhea of any grade, percent of patients” value is 10%; the “elevations of blood lactate, percent of patients” value is recorded as 71%; the “nausea of any grade, percent of patients” value was 67%. In addition, the “vomiting of any grade, percent of patients” value in data set [1] (human, in vivo) is recorded as 29%. Moreover, the “patients with PR” value in data set [1] (patient with prostate cancer) was “one”.

As for `CN(C)C(=N)N=C(N)N` [metformin, reference compound], the IC50 in the data set with A549 is ~500 µM.

For `[H]/N=C(/N)N/C(=N/[H])NCCc1ccccc1` [phenformin, reference compound], the “time until OXPHOS inhibition starts to show” value in the data set with OXPHOS was ≥ 6 h.

As to `Cn1nnc2c(C(N)=O)ncn2c1=O` [temozolomide, reference compound], the neurosphere size result with Glioblastoma cells is “decreased”. In addition, the median survival time in the data set with glioblastoma (GSC11) is reported as 58 days.
